These are literature values, as cited in US12161617B2, “Methocarbamol compositions and related methods” (Exela Sterile Medicines LLC, priority 2014, dated 2024).

In the case of `COc1ccccc1OCC(O)COC(N)=O` (centres unmarked) [methocarbamol, 3-(2-methoxyphenoxy)-1,2-propanediol 1-carbamate], for the setting “patients undergoing maintenance haemodialysis vs normal subjects”, the “differences with respect to methocarbamol absorption” value is recorded as “no significant differences”. In addition, the “relative systemic availability in patients” value (renal dialysis patients relative to normal subjects) is 113%.
